Experiments:
[1] = clinical study: sn-1(3) MAG vs fish oil (TAG) delivering EPA under XENICAL-induced lipid maldigestion; type: in vivo, human
Method: This clinical study compared the efficacy of sn-1(3) MAG and fish oil (TAG) in delivering EPA in humans under lipid maldigestion conditions induced by XENICAL® (ORLISTAT). The comparison was tested in volunteers treated with XENICAL® to induce lipid maldigestion or not treated with XENICAL® (ORLISTAT). The primary objective was to assess accretion of EPA in erythrocytes over 21 days when consumed as fish oil (TAG) or sn-1(3) MAG. The secondary objectives were to assess accretion of EPA in plasma over 21 days and also to assess the pharmacokinetics of EPA after an acute dose either in the form of sn-1(3) MAG or TAG (AUC in chylomicrons over 10 hours postprandial). See FIG. 4 that describes the clinical study timeline.

[2] = lipid maldigestion or malabsorption rat model (XENICAL/Orlistat), EPA in red blood cells and tissues; type: in vivo; conditions: for level of EPA incorporated in red blood cells: rats fed with XENICAL, day 7 (FIG. 3)
Method: The concept was tested in a lipid maldigestion or malabsorption rat model. The maldigestion or malabsorption condition was obtained using XENICAL® (ORLISTAT, tetrahydrolipstatin), a pancreatic and gastric lipases inhibitor. Rats were fed during 21 days with long-chain polyunsaturated fatty acid (LC-PUFA) supplements containing mainly eicosapentaenoic (EPA) acid. Fish oil was used as a source of triacylglycerols, and different EPA glycerides were evaluated: […] XENICAL® (ORLISTAT) was given at a level sufficient to decrease lipid absorption by 40%. A group receiving fish oil without XENICAL® (ORLISTAT) was used as a positive control. At different time intervals (D3, D7, […]), the fatty acid profiles of red blood cells and plasma lipids were determined. At the end of the experiment, the fatty acid profiles of different tissues were determined. The main objective was to follow the level of EPA in red blood cells and plasma lipids. The main comparison evaluated was the difference in EPA level between the group receiving EPA glycerides such as EPA-containing sn-1(3) MAG, in combination with XENICAL® (ORLISTAT) and the positive control group (fish oil+XENICAL® (ORLISTAT)).

Structure (SMILES)	carrier for EPA (overall conclusion of the clinical trial) ([1]; human subjects treated with XENICAL, vs fish oil (TAG))	accretion of EPA in erythrocytes after 21 days (chronic effect) ([1]; humans, with XENICAL, in comparison to fish oil and XENICAL, p=0.0001 (FIG. 6))	accretion of EPA in plasma after 21 days (chronic effect) ([1]; humans, with XENICAL, relative to fish oil and XENICAL, p=0.0003 (FIG. 7))	level of EPA incorporated in red blood cells ([2]; compared with fish oil + XENICAL, all P values lower than 0.05)	level of EPA incorporated in red blood cells ([2]; compared with fish oil group without XENICAL)	incorporation of LC-PUFAs in tissue ([2]; rats with XENICAL, comparing groups A, B and C)	EPA incorporation in red blood cells ([2]; rats fed fish oil with XENICAL vs fish oil without XENICAL, day 7)
CC/C=C\C/C=C\C/C=C\C/C=C\C/C=C\CCCC(=O)OCC(O)CO (stereo not shown) [Sn-1(3)-MAG-EPA, sn-1(3)-monoeicosapentaenoylglycerol]	better carrier for EPA than fish oil (TAG)	statistically significant	statistically significant	statistically higher	even higher than the fish oil group	improved	–
CCCCCCCCCCC[C@@H](C[C@@H]1OC(=O)[C@H]1CCCCCC)OC(=O)[C@H](CC(C)C)NC=O [XENICAL® (ORLISTAT), tetrahydrolipstatin, reference compound]	–	–	–	–	–	–	decreases EPA incorporation in red blood cells

Reference: US20170332691A1, “NUTRITIONAL COMPOSITIONS COMPRISING SN-1 (3) MONOACYLGLYCEROLS FOR USE IN THE TREATMENT OF MALABSORPTION OR MALDIGESTION IN INFANTS OR YOUNG CHILDREN” (NESTEC S.A., priority 2014, published 2017)
